tested on: Colo205 human colon carcinoma cell line; assay: In vitro tumor cell proliferation assay (MTS, CellTiter 96 Aqueous One Solution); assay type: cell-based; conditions: COLO 205, Colo205 cells, 72 hours compound exposure, MTS absorbance at 490 nm, read-out: IC50 (concentration of test compound required to inhibit proliferation of 50% of the cells)
Procedure: In Vitro Tumor Cell Proliferation Assay
The adherent H460 human non-small cell lung carcinoma and Colo205 human colon carcinoma cell lines were purchased from the American Type and Culture Collection (ATCC, Manassas, Va.) and maintained in RPMI-1640 growth media supplemented with 10% heat inactivated fetal bovine serum (Gibco, Invitrogen Corp. Grand Island, N.Y.). At 37° C. in a humidified atmosphere of 5% CO2.
The CellTiter 960 Aqueous One Solution kit, MTS, (Promega, Madison, Wis.) was used to measure proliferation of tumor cell lines in vitro. This method monitors the bioreduction of a tetrazolium dye as a measure of cell viability. On Day 0, exponentially growing cells were trypsinized, resuspended in RPMI-1640 growth media supplemented with 10% FCS, 100 u/ml of penicillin G and 100 ug/ml of streptomycin sulfate, and seeded at 2000 cells per well into 96 well microtiter plates. Cells were incubated overnight in a humidified atmosphere of 5% CO2 at 37° C. On Day 1, serial dilutions of compounds were prepared at 2× the finial assay concentration. One hundred microliters of 2× solution was added to test wells in duplicate and control wells received no test compound. The final drug concentration ranged from 0 to 10-20 um in a 5 point dose-response curve. Cells were incubated in the presence of test compounds in a humidified atmosphere of 5% CO2 at 37° C. for 72 hours. After 72 hours of compound exposure, 40 ul of Promega CellTiter 960 Aqueous One Solution was added to each well and absorbance at 490 n-M was measured using a multi-well plate reader. Percent inhibition of proliferation was calculated using the following formula: 100×(1−Absorbancetreated−Background/(Absorbancecontrol−Background)
Absorbancetreated=absorbance at 490 nm in test wells, cells with test compound
Absorbancecontrol=absorbance at 490 nm in control wells, cells with no test compound
Background=absorbance 490 nm in wells containing media and no cells
The concentration of test compound required to inhibit proliferation of 50% of the cells (IC50) was determined by linear regression analysis.
Representative compounds of the invention were tested in the above-described Colo205 human colon carcinoma cell line in vitro assay and found to inhibit human colon carcinoma cell proliferation, and are summarized as follows: […]

Row | SMILES | IC50 [nM]
1 | N#Cc1ccc(N2CCN(c3c(F)cc4c(=O)c(C(=O)O)cn(-c5ccc(CN6CCCC6)c(F)c5)c4c3Cl)CC2)cc1 [Example 188, 8-chloro-7-[4-(4-cyanophenyl)-piperazine-1-yl]-6-fluoro-1-(3-fluoro-4-pyrrolidin-1-ylmethyl-phenyl)-4-oxo-1,4-dihydroquinoline-3-carboxylic acid] | < 500
2 | CC1CCCN1Cc1ccc(-n2cc(C(=O)O)c(=O)c3cc(F)c(N4CCN(c5ccc(F)cc5)CC4)c(Cl)c32)cc1 (stereo not shown) [Example 18, 8-chloro-6-fluoro-7-[4-(4-fluorophenyl)-piperazin-1-yl]-1-{4-[(2-methylpyrrolidin-1-yl)methyl]phenyl}-4-oxo-1,4-dihydroquinoline-3-carboxylic acid] | < 500
3 | CC1CCCN1Cc1ccc(-n2cc(C(=O)O)c(=O)c3cc(F)c(N4CCN(c5ccccn5)CC4)c(Cl)c32)cc1 (stereo not shown) [Example 17, 8-chloro-6-fluoro-1-{4-[(2-methylpyrrolidin-1-yl)methyl]phenyl}-4-oxo-7-(4-pyridin-2-ylpiperazin-1-yl)-1,4-dihydroquinoline-3-carboxylic acid] | < 500
4 | COC[C@@H]1CCCN1Cc1ccc(-n2cc(C(=O)O)c(=O)c3cc(F)c(N4CCN(c5ccccn5)CC4)c(Cl)c32)cc1 [Example 24, 8-chloro-6-fluoro-1-(4-{[(2S)-2-(methoxy-methyl)pyrrolidin-1-yl]methyl}phenyl)-4-oxo-7-(4-pyridin-2-ylpiperazin-1-yl)-1,4-dihydroquinoline-3-carboxylic acid] | < 500
5 | CON(C)Cc1ccc(-n2cc(C(=O)O)c(=O)c3cc(F)c(N4CCN(c5ncccc5C#N)CC4)c(Cl)c32)cc1 [Example 54, 8-chloro-7-[4-(3-cyanopyridin-2-yl)piperazin-1-yl]-6-fluoro-1-(4-{[methoxy(methyl)amino]methyl}phenyl)-4-oxo-1,4-dihydroquinoline-3-carboxylic acid] | 2000 to 20000
6 | CN(C)CCc1ccc(-n2cc(C(=O)O)c(=O)c3cc(F)c(N4CCN(c5ncccn5)CC4)c(Cl)c32)cc1 [Example 71, 8-chloro-1-{4-[2-(dimethylamino)ethyl]phenyl}-6-fluoro-4-oxo-7-(4-pyrimidin-2-ylpiperazin-1-yl)-1,4-dihydroquinoline-3-carboxylic acid] | 2000 to 20000
7 | O=C(O)c1cn(-c2ccc(CNC3CCCC3Cl)cc2)c2c(Cl)c(N3CCN(c4ccccn4)CC3)c(F)cc2c1=O (stereo not shown) [Example 173, 8-chloro-1-{4-[(2-chloro-cyclopentylamino)-methyl]-phenyl}-6-fluoro-4-oxo-7-(4-pyridin-2-yl-piperazine-1-yl)-1,4-dihydro-quinoline-3-carboxylic acid] | 500 to 2000
8 | CCN(CC)Cc1ccc(-n2cc(C(=O)O)c(=O)c3cc(F)c(N4CCN(c5ccc(C(C)=O)cc5)CC4)c(OC)c32)cc1 [Example 116, 7-[4-(4-acetylphenyl)piperazin-1-yl]-1-{4-[(diethylamino)methyl]phenyl}-6-fluoro-8-methoxy-4-oxo-1,4-dihydroquinoline-3-carboxylic acid] | < 500
9 | CCN(CC)Cc1ccc(-n2cc(C(=O)O)c(=O)c3cc(F)c(N4CCN(c5ccccn5)CC4)c(OC(F)(F)F)c32)cc1 [Example 132, 1-{4-[(diethylamino)methyl]phenyl}-6-fluoro-4-oxo-7-(4-pyridin-2-ylpiperazin-1-yl)-8-(trifluoromethoxy)-1,4-dihydroquinoline-3-carboxylic acid] | < 500

Continued, values first:

Row | IC50 [nM] | SMILES
10 | < 500 | O=C(O)c1cn(-c2ccc(CN3CCCC3)cc2)c2c(OC(F)(F)F)c(N3CCN(c4ncccn4)CC3)c(F)cc2c1=O [Example 123, 6-fluoro-4-oxo-7-(4-pyrimidin-2-yl-piperazin-1-yl)-1-[4-(pyrrolidin-1-ylmethyl)phenyl]-8-(trifluoromethoxy)-1,4-dihydroquinoline-3-carboxylic acid]
11 | 500 to 2000 | NC(=O)c1cccnc1N1CCN(c2c(F)cc3c(=O)c(C(=O)O)cn(-c4ccc(CN5CCCC5)cc4)c3c2Cl)CC1 [Example 9, 7-{4-[3-(aminocarbonyl)pyridin-2-yl]piperazin-1-yl}-8-chloro-6-fluoro-4-oxo-1-[4-(pyrrolidin-1-ylmethyl)phenyl]-1,4-dihydroquinoline-3-carboxylic acid]
12 | < 500 | CCN(CC)Cc1ccc(-n2cc(C(=O)O)c(=O)c3cc(F)c(N4CCN(c5ccc(F)cc5)CC4)c(OC(F)(F)Cl)c32)cc1 [Example 163, 8-[chloro(difluoro)methoxy]-1-{4-[(diethylamino)methyl]phenyl}-6-fluoro-7-[4-(4-fluorophenyl)piperazin-1-yl]-4-oxo-1,4-dihydroquinoline-3-carboxylic acid]
13 | < 500 | COc1cc(CN2CCCCC2)ccc1-n1cc(C(=O)O)c(=O)c2cc(F)c(N3CCN(c4ccc(F)cc4)CC3)c(Cl)c21 [Example 177, 8-chloro-6-fluoro-7-[4-(4-fluorophenyl)-piperazine-1-yl]-1-(2-methoxy-4-piperidine-1-ylmethyl-phenyl)-4-oxo-1,4-dihydroquinoline-3-carboxylic acid]
14 | 500 to 2000 | COc1c(N2CCN(c3ccc(F)cc3F)CC2)c(F)cc2c(=O)c(C(=O)O)cn(-c3ccc(CN4CCCC4)cc3)c12 [Example 76, 7-[4-(2,4-difluorophenyl)piperazin-1-yl]-6-fluoro-8-methoxy-4-oxo-1-[4-(pyrrolidin-1-ylmethyl)phenyl]-1,4-dihydroquinoline-3-carboxylic acid]
15 | 500 to 2000 | COc1c(N2CCN(c3ccccc3F)CC2)c(F)cc2c(=O)c(C(=O)O)cn(-c3ccc(CN4CCCC4)cc3)c12 [Example 75, 6-fluoro-7-[4-(2-fluorophenyl)piperazin-1-yl]-8-methoxy-4-oxo-1-[4-(pyrrolidin-1-ylmethyl)phenyl]-1,4-dihydroquinoline-3-carboxylic acid]
16 | < 500 | N#Cc1cccnc1N1CCN(c2c(F)cc3c(=O)c(C(=O)O)cn(-c4ccc(CN5CCCC5)cc4)c3c2Cl)CC1 [Example 7, 8-chloro-7-[4-(3-cyanopyridin-2-yl)piperazin-1-yl]-6-fluoro-4-oxo-1-[4-(pyrrolidin-1-ylmethyl)phenyl]-1,4-dihydroquinoline-3-carboxylic acid]
17 | 2000 to 20000 | O=C(O)c1cn(-c2cccc(CN3CCCCC3)c2)c2c(Cl)c(N3CCN(c4ccccn4)CC3)c(F)cc2c1=O [Example 65, 8-chloro-6-fluoro-4-oxo-1-[3-(piperidin-1-yl-methyl)phenyl]-7-(4-pyridin-2-ylpiperazin-1-yl)-1,4-dihydroquinoline-3-carboxylic acid]
18 | 500 to 2000 | O=C(O)c1cn(-c2ccc(CN3CCCC3)cc2)c2c(Cl)c(N3CCN(c4ncccc4C(F)(F)F)CC3)c(F)cc2c1=O [Example 14, 8-chloro-6-fluoro-4-oxo-1-[4-(pyrrolidin-1-yl-methyl)phenyl]-7-{4-[3-(trifluoromethyl)pyridin-2-yl]piperazin-1-yl}-1,4-dihydroquinoline-3-carboxylic acid]
19 | < 500 | O=C(O)c1cn(-c2ccc(CN3CCCC3)cc2)c2c(OC(F)(F)Cl)c(N3CCN(c4ccccc4)CC3)c(F)cc2c1=O [Example 152, 8-[chloro(difluoro)methoxy]-6-fluoro-4-oxo-7-(4-phenylpiperazin-1-yl)-1-[4-(pyrrolidin-1-ylmethyl)phenyl]-1,4-dihydroquinoline-3-carboxylic acid]
